Laboratory results taken from patent publication US9353083B2, “Oxazetidine derivatives, process for preparing them and use in human medicine and in cosmetics” (GALDERMA RESEARCH & DEVELOPMENT, priority 2011, dated 2016).
pEC50, pIC50: −log10 of the molar value.

What was measured:
Type in all cases: cell-based
hERG potassium channel = hERG potassium channel (Homo sapiens (Human), UniProt Q12809); assay: hERG channel test: effect on amplitude of IKr in hERG transfected cells; details: for effect on the amplitude of IKr encoded by hERG (change in percentage relative to the control): hERG transfected human cells; for effect observed on the amplitude of IKr (in words): 1, 3 and 10 μM; for lengthening the QT time (conclusion from hERG test): under the experimental conditions; for pIC50: estimated from 1, 3 and 10 μM, read-out: Estimated IC50 for hERG channel blockade; for concentration from which the decrease of the amplitude of IKr starts: tested at 1, 3 and 10 μM; for decrease of the amplitude of IKr: with 10 μM
hERG potassium channel, sequence (Q12809 whole entry): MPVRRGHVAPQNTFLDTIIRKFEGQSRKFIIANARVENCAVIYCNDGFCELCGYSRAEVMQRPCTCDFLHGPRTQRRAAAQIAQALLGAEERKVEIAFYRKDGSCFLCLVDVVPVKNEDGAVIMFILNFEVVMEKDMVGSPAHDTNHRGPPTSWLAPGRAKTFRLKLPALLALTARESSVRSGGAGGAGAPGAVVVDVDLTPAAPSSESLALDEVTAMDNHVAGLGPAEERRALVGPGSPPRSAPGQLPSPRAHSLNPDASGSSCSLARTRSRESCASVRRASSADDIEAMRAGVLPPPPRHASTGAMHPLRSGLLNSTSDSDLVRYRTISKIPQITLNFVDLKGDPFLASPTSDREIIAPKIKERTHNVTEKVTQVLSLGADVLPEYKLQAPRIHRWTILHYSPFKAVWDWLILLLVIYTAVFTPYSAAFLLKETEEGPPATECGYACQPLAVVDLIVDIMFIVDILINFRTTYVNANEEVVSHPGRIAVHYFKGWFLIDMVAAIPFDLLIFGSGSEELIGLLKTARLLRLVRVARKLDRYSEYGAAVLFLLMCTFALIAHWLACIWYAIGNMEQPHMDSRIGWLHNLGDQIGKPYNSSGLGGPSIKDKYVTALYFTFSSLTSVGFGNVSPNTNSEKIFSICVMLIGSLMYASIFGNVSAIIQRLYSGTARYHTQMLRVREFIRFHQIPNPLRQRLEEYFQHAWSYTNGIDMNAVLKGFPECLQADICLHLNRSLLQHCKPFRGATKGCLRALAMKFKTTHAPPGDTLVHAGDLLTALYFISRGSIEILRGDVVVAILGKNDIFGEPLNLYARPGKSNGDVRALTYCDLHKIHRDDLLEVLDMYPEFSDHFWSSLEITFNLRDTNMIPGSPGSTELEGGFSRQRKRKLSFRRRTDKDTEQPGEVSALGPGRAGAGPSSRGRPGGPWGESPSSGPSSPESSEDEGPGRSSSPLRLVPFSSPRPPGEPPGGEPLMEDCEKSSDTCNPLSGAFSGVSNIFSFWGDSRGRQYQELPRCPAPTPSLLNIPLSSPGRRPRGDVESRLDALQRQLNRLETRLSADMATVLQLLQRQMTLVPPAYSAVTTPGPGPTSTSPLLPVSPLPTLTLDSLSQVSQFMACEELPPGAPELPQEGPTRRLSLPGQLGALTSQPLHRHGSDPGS
Description: The object of the study was to track down the inhibition profile of seven selective compounds from human cell lines stably transfected with the gene for expressing the IKr protein of the hERG potassium channel. Several MC1R agonist compounds and especially the compounds of interest in the context of the invention were evaluated. The toxicity evaluation was performed using three increasing concentrations (1, 3 and 10 μM) of 2 hERG transfected cells (no reference compound used) of the following compounds: • Compound 1: N-[(R)-2-[3-(4-hydroxybutoxy)-3-o-tolylazetidin-1-yl]-1-(4-methoxybenzyl)-2-oxoethyl]-3-(1H-imidazol-4-yl)propionamide • Compound 2: (S)-N-[(R)-2-(3-butoxy-3-o-tolylazetidin-1-yl)-1-(4-methoxybenzyl)-2-oxoethyl]-2-hydroxy-3-(1H-imidazol-4-yl)propionamide • Compound 3: 3-(1H-imidazol-4-yl)-N-{(R)-1-(4-methoxybenzyl)-2-oxo-2-[3-o-tolyl-3-(4,4,4-trifluorobutoxy)azetidin-1-yl]ethyl}propionamide • Compound 4: N-[(R)-2-(3-but-2-ynyloxy-3-o-tolylazetidin-1-yl)-1-(4-methoxybenzyl)-2-oxoethyl]-3-(5-methyl-1H-imidazol-4-yl)propionamide • Compound 5: N-[(R)-2-(3-cyclobutylmethoxy-3-o-tolylazetidin-1-yl)-1-(4-methoxybenzyl)-2-oxoethyl]-3-(5-methyl-1H-imidazol-4-yl)propionamide • Compound 6: N-[(R)-2-(3-cyclopropylmethoxy-3-o-tolylazetidin-1-yl)-1-(4-methoxybenzyl)-2-oxoethyl]-3-(5-methyl-1H-imidazol-4-yl)propionamide • Compound 7: N-[(R)-2-(3-butoxy-3-o-tolylazetidin-1-yl)-1-(4-methoxybenzyl)-2-oxoethyl]-3-guanidinopropionamide; bis(trifluoroacetic acid) salt
The effect on the amplitude of IKr encoded by hERG (as the changes in percentages relative to the control) are summarized per compound and per concentration in Table 1 below.

hMC1R = hMC1R (Homo sapiens (Human), UniProt Q01726); assay: Transactivation test melanocortin receptors (CRE-Luc, HEK293), hMC1R; details: for pEC50: HEK293, pCRE-Luc, agonist mode, read-out: EC50 hMC1-R
hMC1R, sequence (Q01726 whole entry): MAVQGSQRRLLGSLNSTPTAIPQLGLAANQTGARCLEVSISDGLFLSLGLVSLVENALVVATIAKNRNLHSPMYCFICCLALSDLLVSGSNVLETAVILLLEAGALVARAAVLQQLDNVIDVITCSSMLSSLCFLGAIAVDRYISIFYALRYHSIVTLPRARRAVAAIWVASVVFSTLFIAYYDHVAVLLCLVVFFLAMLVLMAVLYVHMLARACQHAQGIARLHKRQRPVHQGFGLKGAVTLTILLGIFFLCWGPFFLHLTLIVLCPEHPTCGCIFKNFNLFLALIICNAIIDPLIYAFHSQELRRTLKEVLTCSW
Description: (§1) The aim of this example is to show the Melanocortine receptor selectivity of compound 1 and compound 6 of the present invention: • Cells: The lines HEK293 are transfected with vectors pCRE-Luc and hMC1R or hMC4R. The cells are cultured at 37° C. and 5% CO2, in DMEM medium supplemented with 10% foetal calf serum. • Test principle: In the presence of an activator (agonist), the melanocortin receptor will activate the cAMP pathway, which, via the vector CRE-Luc, will lead to the synthesis of luciferase. After addition of a lysis buffer containing a luminescent luciferase substrate, the luminescence proportional to the degree of activation or inhibition of receptor may be measured. • Testing the products: The products are dissolved at 10 mM in DMSO. They are tested as a response dose at 0.1% of DMSO final. The range comprising 10 points and a zero starts at 10 μM with four-fold dilutions. To test agonists, the products are tested alone. To determine the antagonist behaviour, the products of interest are tested in the presence of 1 nM NDP-MSH (reference agonist). The cells are inoculated at a rate of 5000 cells per well (384-well plate) in serum-free DMEM medium and incubated overnight at 37° C. and 5% CO2. • The products and the reference ligand (NDP-MSH) are added the following day and the plates are reincubated for 6 hours at 37° C. and 5% CO2. After adding the lysis buffer containing luciferin, the plates are read in a Top-Count machine. The results are normalized as percentage of activity using the 100% (cells+NDP-MSH at 10 nM) and 0% (cells alone) controls. An EC50 is calculated for each product using the XLFit software.

hMC4R = hMC4R (Homo sapiens (Human), UniProt P32245); assay: Transactivation test melanocortin receptors (CRE-Luc, HEK293), hMC4R; details: HEK293, pCRE-Luc, agonist mode; read-out: EC50 hMC4-R
hMC4R, sequence (P32245 whole entry): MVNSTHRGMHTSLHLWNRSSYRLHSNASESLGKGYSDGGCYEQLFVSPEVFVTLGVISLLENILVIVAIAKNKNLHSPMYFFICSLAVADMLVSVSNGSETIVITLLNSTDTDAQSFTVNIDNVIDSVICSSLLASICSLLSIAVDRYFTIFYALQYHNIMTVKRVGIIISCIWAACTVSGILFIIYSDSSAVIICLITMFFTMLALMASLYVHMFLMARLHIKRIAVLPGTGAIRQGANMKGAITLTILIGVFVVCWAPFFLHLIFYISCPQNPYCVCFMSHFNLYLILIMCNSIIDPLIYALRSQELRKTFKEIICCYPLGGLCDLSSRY
Description: as §1, with “The cells are inoculated at a rate of 5000 cells per well (384-well plate) in serum-free DMEM medium and incubated overnight at 37° C. and 5% CO2. • The products and the reference ligand (NDP-MSH) are added the following day and the plates are reincubated for 6 hours at 37° C. and 5% CO2.” left out, “The results are normalized as percentage of activity using the 100% (cells+NDP-MSH at 10 nM) and 0% (cells alone) controls.” left out

## COc1ccc(C[C@@H](NC(=O)CCc2c[nH]cn2)C(=O)N2CC(OCCCCO)(c3ccccc3C)C2)cc1 [Compound 1, N-[(R)-2-[3-(4-hydroxybutoxy)-3-o-tolylazetidin-1-yl]-1-(4-methoxybenzyl)-2-oxoethyl]-3-(1H-imidazol-4-yl)propionamide]
hERG potassium channel
  cardiotoxic alert on the hERG channel test: do not present any cardiotoxic alert
  effect observed on the amplitude of IKr (in words): no effect observed
  lengthening the QT time (conclusion from hERG test): did not exhibit this characteristic
hERG potassium channel; 1 μM
  effect on the amplitude of IKr encoded by hERG (change in percentage relative to the control): −1.5 ± 2.5%
hERG potassium channel; 3 μM
  effect on the amplitude of IKr encoded by hERG (change in percentage relative to the control): −3.0 ± 1.0%
hERG potassium channel; 10 μM
  effect on the amplitude of IKr encoded by hERG (change in percentage relative to the control): −7.5 ± 3.5%
hMC1R
  melanocortin receptor selectivity (hMC1R versus hMC4R): hMC1R highly selective
  pEC50: 6.60
hMC4R
  pEC50: 5.10

## CCCCOC1(c2ccccc2C)CN(C(=O)[C@@H](Cc2ccc(OC)cc2)NC(=O)[C@@H](O)Cc2c[nH]cn2)C1 [Compound 2, (S)-N-[(R)-2-(3-butoxy-3-o-tolylazetidin-1-yl)-1-(4-methoxybenzyl)-2-oxoethyl]-2-hydroxy-3-(1H-imidazol-4-yl)propionamide]
hERG potassium channel; 1 μM
  effect on the amplitude of IKr encoded by hERG (change in percentage relative to the control): +1.0 ± 1.0%
hERG potassium channel; 3 μM
  effect on the amplitude of IKr encoded by hERG (change in percentage relative to the control): −5.0 ± 5.0%
hERG potassium channel; 10 μM
  effect on the amplitude of IKr encoded by hERG (change in percentage relative to the control): −51.5 ± 6.5%
hERG potassium channel
  effect observed on the amplitude of IKr (in words): modified but only at the highest concentration
  pIC50: 5.00
  lengthening the QT time (conclusion from hERG test): more substantially

## COc1ccc(C[C@@H](NC(=O)CCc2c[nH]cn2)C(=O)N2CC(OCCCC(F)(F)F)(c3ccccc3C)C2)cc1 [Compound 3, 3-(1H-imidazol-4-yl)-N-{(R)-1-(4-methoxybenzyl)-2-oxo-2-[3-o-tolyl-3-(4,4,4-trifluorobutoxy)azetidin-1-yl]ethyl}propionamide]
hERG potassium channel; 1 μM
  effect on the amplitude of IKr encoded by hERG (change in percentage relative to the control): −16.0 ± 3.0%
hERG potassium channel; 3 μM
  effect on the amplitude of IKr encoded by hERG (change in percentage relative to the control): −42.5 ± 5.5%
hERG potassium channel; 10 μM
  effect on the amplitude of IKr encoded by hERG (change in percentage relative to the control): −86.5 ± 3.5%
hERG potassium channel
  effect observed on the amplitude of IKr (in words): dose effect observed
  pIC50: < 5.52
  concentration from which the decrease of the amplitude of IKr starts: 1000 nM
  lengthening the QT time (conclusion from hERG test): more substantially
  decrease of the amplitude of IKr: 86.5%

## CC#CCOC1(c2ccccc2C)CN(C(=O)[C@@H](Cc2ccc(OC)cc2)NC(=O)CCc2nc[nH]c2C)C1 [Compound 4, N-[(R)-2-(3-but-2-ynyloxy-3-o-tolylazetidin-1-yl)-1-(4-methoxybenzyl)-2-oxoethyl]-3-(5-methyl-1H-imidazol-4-yl)propionamide]
hERG potassium channel; 1 μM
  effect on the amplitude of IKr encoded by hERG (change in percentage relative to the control): −20.5 ± 9.5%
hERG potassium channel; 3 μM
  effect on the amplitude of IKr encoded by hERG (change in percentage relative to the control): −22.0 ± 10.0%
hERG potassium channel; 10 μM
  effect on the amplitude of IKr encoded by hERG (change in percentage relative to the control): −42.5 ± 2.5%
hERG potassium channel
  effect observed on the amplitude of IKr (in words): dose effect observed
  pIC50: < 5.00
  concentration from which the decrease of the amplitude of IKr starts: 3000 nM
  lengthening the QT time (conclusion from hERG test): more substantially
  decrease of the amplitude of IKr: 42.5%

## COc1ccc(C[C@@H](NC(=O)CCc2nc[nH]c2C)C(=O)N2CC(OCC3CCC3)(c3ccccc3C)C2)cc1 [Compound 5, N-[(R)-2-(3-cyclobutylmethoxy-3-o-tolylazetidin-1-yl)-1-(4-methoxybenzyl)-2-oxoethyl]-3-(5-methyl-1H-imidazol-4-yl)propionamide]
hERG potassium channel; 1 μM
  effect on the amplitude of IKr encoded by hERG (change in percentage relative to the control): −17.0 ± 4.0%
hERG potassium channel; 3 μM
  effect on the amplitude of IKr encoded by hERG (change in percentage relative to the control): −49.5 ± 16.5%
hERG potassium channel; 10 μM
  effect on the amplitude of IKr encoded by hERG (change in percentage relative to the control): −76.5 ± 17.5%
hERG potassium channel
  effect observed on the amplitude of IKr (in words): dose effect observed
  pIC50: 5.52
  concentration from which the decrease of the amplitude of IKr starts: 1000 nM
  lengthening the QT time (conclusion from hERG test): more substantially
  decrease of the amplitude of IKr: 76.5%

## COc1ccc(C[C@@H](NC(=O)CCc2nc[nH]c2C)C(=O)N2CC(OCC3CC3)(c3ccccc3C)C2)cc1 [Compound 6, N-[(R)-2-(3-cyclopropylmethoxy-3-o-tolylazetidin-1-yl)-1-(4-methoxybenzyl)-2-oxoethyl]-3-(5-methyl-1H-imidazol-4-yl)propionamide]
hERG potassium channel
  cardiotoxic alert on the hERG channel test: do not present any cardiotoxic alert
  effect observed on the amplitude of IKr (in words): no effect observed
  lengthening the QT time (conclusion from hERG test): did not exhibit this characteristic
hERG potassium channel; 1 μM
  effect on the amplitude of IKr encoded by hERG (change in percentage relative to the control): −5.0 ± 3.0%
hERG potassium channel; 3 μM
  effect on the amplitude of IKr encoded by hERG (change in percentage relative to the control): −9.5 ± 3.5%
hERG potassium channel; 10 μM
  effect on the amplitude of IKr encoded by hERG (change in percentage relative to the control): −16.0 ± 7.0%
hMC1R
  melanocortin receptor selectivity (hMC1R versus hMC4R): hMC1R highly selective
  pEC50: 7.15
hMC4R
  pEC50: 5.35

## CCCCOC1(c2ccccc2C)CN(C(=O)[C@@H](Cc2ccc(OC)cc2)NC(=O)CCNC(=N)N)C1 [Compound 7, N-[(R)-2-(3-butoxy-3-o-tolylazetidin-1-yl)-1-(4-methoxybenzyl)-2-oxoethyl]-3-guanidinopropionamide]
hERG potassium channel; 1 μM
  effect on the amplitude of IKr encoded by hERG (change in percentage relative to the control): −19.5 ± 4.5%
hERG potassium channel; 3 μM
  effect on the amplitude of IKr encoded by hERG (change in percentage relative to the control): −29.5 ± 9.5%
hERG potassium channel; 10 μM
  effect on the amplitude of IKr encoded by hERG (change in percentage relative to the control): −33.0 ± 12.0%
hERG potassium channel
  effect observed on the amplitude of IKr (in words): slight dose effect observed
  pIC50: < 5.00
  concentration from which the decrease of the amplitude of IKr starts: 1000 nM
  lengthening the QT time (conclusion from hERG test): slightly
  decrease of the amplitude of IKr: 33%
